Source: patent US20190389850A1, “COMPOUNDS” (GLAXOSMITHKLINE INTELLECTUAL PROPERTY DEVELOPMENT LIMITED, priority 2017, published 2019)
Several values for one entry are separate records, joined by “and”; a condition that tells them apart may be missing. Identical values can stand only once.

Each molecule was assayed against T1, Full length G2019 human LRRK2 (Homo sapiens, UniProt Q5S007) (assay: Full length G2019 human LRRK2 Inhibition Mass Spectrometry assay). Conditions: LRRKtide to phospho-LRRKtide conversion, RapidFire mass spectrometry; 25 nM LRRK2, 2 mM ATP; read-out: pIC50 in the full length G2019 human LRRK2 Inhibition Mass Spectrometry assay (converted).
T1 construct: purified recombinant Full length Flag-LRRK2; made in house; host or cells: HEK293 6E cells transduced with BacMam virus (virus made in Sf9)
Assay type: biochemical
Description: a. Full Length G2019 Human LRRK2 Inhibition Mass Spectrometry Assay
This assay for Leucine Rich Repeat Kinase 2 (LRRK2) inhibition is based on the direct measurement of the peptide ‘LRRKtide’ (LRRKtide: RLGRDKYKT*LRQIRQ and “*” refers to the site of phosphorylation.) and phosphorylated ‘LRRKtide’ using a high throughput RapidFire mass spectrometry assay. Inhibitors are compounds that reduce the conversion of LRRKtide to phospho-LRRKtide.
• 1) A 10 mM test compound was dissolved in 100% DMSO and serially diluted 1 in 4. 100 nL of this dilution series was then added to a 384 well, v bottom polypropylene plate, excluding columns 6 and 18. 100 nL of DMSO was added to columns 6 and 18 as controls wells. […] Test plates were then analysed on an Agilent RapidFire High Throughput solid phase extraction system coupled to AB Sciex API 4000 triple quadropole mass spectrometer with the following setting: RapidFire settings: • Sip Height=2 mm, Aspirate=500 ms, Load time=3000 ms, Elution time=3000 ms, Requilibration=500 ms. • Flow rates: pump 1=1.5 mL/min, pump 2 1.25 mL/min pump 3=0.8 mL/min Mass Spectrometer Settings: • LRRKtide Detection settings: Q1 mass 644.8 Da, Q3 mass 638.8, declustering potential 76 volts, collision energy 37 volts, CXP 34 volts. • Phospho-LRRKtide Detection settings: Q1 mass 671.4 Da, Q3 mass 638.8, Declustering potential 76 volts, Collision energy 37 volts, CXP 34 volts. • A C4 cartridge was used and running buffers were: A (aqueous) 0.1% formic acid in water B (organic) 0.1% formic acid, 80% acetonitrile, 20% water. • Collision gas: 12, Curtain gas: 25, Ion Source gas (1): 60, Ion Source gas (2): 60, Ion Spray Voltage: 5500, Temperature: 600, Interface Heater: ON. • Resolution Q1: low, Resolution Q3: low. • 6) Data was analysed using ActivityBase software (IDBS). A percent conversion from LRRKtide to Phospho-LRRKtide was calculated using the following formula: […]

T1 sequence (Q5S007 with tags, fused parts or gaps R50H): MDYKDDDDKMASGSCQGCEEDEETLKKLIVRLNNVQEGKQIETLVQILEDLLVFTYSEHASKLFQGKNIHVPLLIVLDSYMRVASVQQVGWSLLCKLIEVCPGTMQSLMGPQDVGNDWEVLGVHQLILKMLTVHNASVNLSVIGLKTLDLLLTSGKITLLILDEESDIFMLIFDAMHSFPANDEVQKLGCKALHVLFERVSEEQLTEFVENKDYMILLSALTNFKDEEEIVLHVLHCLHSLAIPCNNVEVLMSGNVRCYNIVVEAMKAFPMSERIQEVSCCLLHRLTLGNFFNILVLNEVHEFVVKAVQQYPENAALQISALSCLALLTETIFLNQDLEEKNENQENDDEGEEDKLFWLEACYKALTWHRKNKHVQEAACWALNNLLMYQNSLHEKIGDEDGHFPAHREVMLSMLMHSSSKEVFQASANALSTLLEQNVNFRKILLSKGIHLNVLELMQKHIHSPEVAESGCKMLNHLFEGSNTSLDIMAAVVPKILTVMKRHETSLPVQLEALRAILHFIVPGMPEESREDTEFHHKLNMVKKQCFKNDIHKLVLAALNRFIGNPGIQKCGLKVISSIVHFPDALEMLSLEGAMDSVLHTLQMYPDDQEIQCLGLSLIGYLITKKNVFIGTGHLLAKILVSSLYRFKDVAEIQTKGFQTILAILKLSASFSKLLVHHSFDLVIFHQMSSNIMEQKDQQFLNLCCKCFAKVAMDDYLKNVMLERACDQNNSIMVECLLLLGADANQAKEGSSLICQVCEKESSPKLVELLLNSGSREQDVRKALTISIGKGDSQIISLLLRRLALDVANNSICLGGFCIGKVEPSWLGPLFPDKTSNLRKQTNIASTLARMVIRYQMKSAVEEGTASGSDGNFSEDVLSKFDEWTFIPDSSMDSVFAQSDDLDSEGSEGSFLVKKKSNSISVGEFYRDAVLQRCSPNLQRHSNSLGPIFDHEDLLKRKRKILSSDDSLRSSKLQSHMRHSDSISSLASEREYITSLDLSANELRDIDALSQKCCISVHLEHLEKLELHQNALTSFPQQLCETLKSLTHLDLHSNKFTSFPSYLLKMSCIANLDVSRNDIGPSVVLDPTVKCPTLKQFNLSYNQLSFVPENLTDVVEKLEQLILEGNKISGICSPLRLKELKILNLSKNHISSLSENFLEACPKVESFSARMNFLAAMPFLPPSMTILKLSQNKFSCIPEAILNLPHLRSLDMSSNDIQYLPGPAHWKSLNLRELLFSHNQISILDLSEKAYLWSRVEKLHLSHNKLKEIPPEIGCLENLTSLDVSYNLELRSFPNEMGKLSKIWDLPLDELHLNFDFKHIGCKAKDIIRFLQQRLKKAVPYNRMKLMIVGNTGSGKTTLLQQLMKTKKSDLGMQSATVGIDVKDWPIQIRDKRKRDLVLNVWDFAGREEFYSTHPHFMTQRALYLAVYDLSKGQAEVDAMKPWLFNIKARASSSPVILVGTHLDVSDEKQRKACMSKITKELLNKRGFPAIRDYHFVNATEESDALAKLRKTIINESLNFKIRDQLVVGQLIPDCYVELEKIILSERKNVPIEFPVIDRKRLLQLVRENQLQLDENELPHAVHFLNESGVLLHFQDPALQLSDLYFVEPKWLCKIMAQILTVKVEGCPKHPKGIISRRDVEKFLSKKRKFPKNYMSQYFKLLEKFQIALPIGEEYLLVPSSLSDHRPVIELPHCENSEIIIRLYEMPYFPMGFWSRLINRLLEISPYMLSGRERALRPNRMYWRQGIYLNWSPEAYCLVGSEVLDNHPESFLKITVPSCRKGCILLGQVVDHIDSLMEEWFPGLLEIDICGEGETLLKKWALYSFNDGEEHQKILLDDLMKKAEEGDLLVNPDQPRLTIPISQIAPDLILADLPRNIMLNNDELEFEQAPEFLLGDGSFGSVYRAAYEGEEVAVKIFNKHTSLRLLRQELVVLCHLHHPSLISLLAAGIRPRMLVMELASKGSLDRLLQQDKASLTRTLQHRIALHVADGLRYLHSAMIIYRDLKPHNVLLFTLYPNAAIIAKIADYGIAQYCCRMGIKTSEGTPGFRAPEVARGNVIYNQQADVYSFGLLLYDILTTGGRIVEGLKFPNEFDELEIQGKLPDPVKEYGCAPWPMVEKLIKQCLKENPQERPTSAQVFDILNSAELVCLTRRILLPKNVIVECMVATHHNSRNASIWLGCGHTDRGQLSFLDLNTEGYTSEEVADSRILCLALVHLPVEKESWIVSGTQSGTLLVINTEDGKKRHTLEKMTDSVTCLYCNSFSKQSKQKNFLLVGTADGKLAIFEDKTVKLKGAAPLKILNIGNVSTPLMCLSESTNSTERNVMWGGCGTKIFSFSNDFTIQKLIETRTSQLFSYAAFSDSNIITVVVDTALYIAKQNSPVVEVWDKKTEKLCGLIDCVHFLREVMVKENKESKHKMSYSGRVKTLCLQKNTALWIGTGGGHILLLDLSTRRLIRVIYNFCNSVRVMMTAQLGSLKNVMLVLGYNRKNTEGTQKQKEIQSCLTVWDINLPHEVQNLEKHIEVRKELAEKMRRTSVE

Q: `Cc1nc(N2CCO[C@@H](CO)C2)cc(-n2ncc3cc(C)c(C4CCN(C5(C)COC5)CC4)cc32)n1` [Example A-1, (R)-(4-(2-Methyl-6-(5-methyl-6-(1-(3-methyloxetan-3-yl)piperidin-4-yl)-1H-indazol-1-yl)pyrimidin-4-yl)morpholin-2-yl)methanol] was tested. Which IC50 did it give?
A: The IC50 was at most 100 nM.

Q: Which IC50 does the source give for `Cc1nc(N2CCOC(CCO)C2)cc(-n2ncc3cc(C)c(C4CCN(C5COC5)CC4)cc32)n1` (single isomer, unassigned) [Example B-7, 2-(4-(2-methyl-6-(5-methyl-6-(1-(oxetan-3-yl)piperidin-4-yl)-1H-indazol-1-yl)pyrimidin-4-yl)morpholin-2-yl)ethanol] here?
A: The IC50 was at most 100 nM.

Q: How did the IC50 turn out when `Cc1nc(N2CCO[C@H](CO)C2)cc(-n2ncc3cc(C)c(C4CCN(C5(C)COC5)CC4)cc32)n1` [Example A-2, (S)-(4-(2-Methyl-6-(5-methyl-6-(1-(3-methyloxetan-3-yl)piperidin-4-yl)-1H-indazol-1-yl)pyrimidin-4-yl)morpholin-2-yl)methanol] was run?
A: Its IC50 is at most 100 nM.

Each molecule was assayed against T2, recombinant full length LRRK2 protein (LRRK2 Ser935 phosphorylation) (Homo sapiens, UniProt Q5S007) (assay: Recombinant cellular LRRK2 AlphaScreen assay). Conditions: SH-SY5Y cells over-expressing recombinant full length LRRK2, 60 minutes, read-out: pIC50 in the recombinant cellular LRRK2 AlphaScreen assay (converted).
T2 construct: A BacMam virus expressing full length recombinant LRRK2 was purchased from Invitrogen; host or cells: SH-SY5Y human neuroblastoma cells transduced with BacMam LRRK2 virus
Assay type: cell-based
Excerpt: b. Recombinant Cellular LRRK2 AlphaScreen Assay
To determine the activity of compounds against LRRK2 kinase activity in cells, the observed LRRK2 kinase-dependent modulation of LRRK2 Ser 935 phosphorylation (Dzamko et al., 2010, Biochem. J. 430: 405-413) was utilized to develop a quantitative 384 well plate-based immunoassay of LRRK2 Ser935 phosphorylation in the human neuroblastoma cell line SH-SY5Y, engineered to over-express recombinant full length LRRK2 protein.
A BacMam virus expressing full length recombinant LRRK2 was purchased from Invitrogen and amplified by inoculation of SF-9 cells at MOI 0.3 for 4-5 days in Sf-900 III SFM medium supplemented with 3% fetal bovine serum. Infected cell cultures were then centrifuged at 2000 g for 20 minutes, viral supernatant titer determined by anti-gp64 plaque assay and stored at 4° C.
Affinity-purified anti-phospho LRRK2 Ser935 sheep polyclonal antibody (Dzamko et al., 2010, Biochem. J. 430: 405-413) was biotinylated by standard methods (PerkinElmer). Anti-LRRK2 rabbit polyclonal antibody was purchased from Novus Biologicals. AlphaScreen Protein A IgG Kit (including acceptor and donor beads) was purchased from Perkin Elmer.
SH-SY5Y cells were grown in DMEM/F12 medium with 10% dialysed fetal bovine serum and harvested by treatment with 0.5% trypsin-EDTA for 5 minutes at 37° C. followed by centrifugation at 1000 rpm for 4 minutes. The cell pellet was resuspended in Opti-MEM reduced serum media (Invitrogen) at 200,000 cells/ml and mixed with the BacMam LRRK2 virus at MOI=50. 50 μl cell solutions were then dispensed to each well of a 384-well plate and incubated at 37° C., 5% CO2 for 24 hours.
Serial dilutions of test compounds were prepared in Opti-MEM reduced serum media (Invitrogen) and 5.6 ul transferred from compound plate to cell assay plate to achieve a top final assay concentration of 10 uM. DMSO was used in certain wells as controls. Cells were incubated at 37° C., 5% CO2 for 60 minutes. The medium was then removed and cells lysed by addition of 20 ul cell lysis buffer (Cell Signaling Technology) and incubation at 4° C. for 20 minutes. 10 ul of antibody/acceptor bead mix [(1/1000 biotinylated-pS935 LRRK2 antibody, 1/1000 total-LRRK2 antibody, 1/100 Acceptor beads in AlphaScreen detection buffer (25 mM Hepes (pH 7.4), 0.5% Triton X-100, 1 mg/ml Dextran 500 and 0.1% BSA)] was then added to each well and plates incubated for 2 hours at ambient temperature in the dark. 10 μl of donor beads solution (1/33.3 donor beads in AlphaScreen detection buffer) was then added to each well. Following incubation for a further 2 hours at ambient temperature in the dark, plates were read on an EnVision™ plate reader at emission 520-620 nm with excitation 680 nm. Dose response curve data was based on sigmoidal dose-response model.

T2 sequence (Q5S007 whole entry): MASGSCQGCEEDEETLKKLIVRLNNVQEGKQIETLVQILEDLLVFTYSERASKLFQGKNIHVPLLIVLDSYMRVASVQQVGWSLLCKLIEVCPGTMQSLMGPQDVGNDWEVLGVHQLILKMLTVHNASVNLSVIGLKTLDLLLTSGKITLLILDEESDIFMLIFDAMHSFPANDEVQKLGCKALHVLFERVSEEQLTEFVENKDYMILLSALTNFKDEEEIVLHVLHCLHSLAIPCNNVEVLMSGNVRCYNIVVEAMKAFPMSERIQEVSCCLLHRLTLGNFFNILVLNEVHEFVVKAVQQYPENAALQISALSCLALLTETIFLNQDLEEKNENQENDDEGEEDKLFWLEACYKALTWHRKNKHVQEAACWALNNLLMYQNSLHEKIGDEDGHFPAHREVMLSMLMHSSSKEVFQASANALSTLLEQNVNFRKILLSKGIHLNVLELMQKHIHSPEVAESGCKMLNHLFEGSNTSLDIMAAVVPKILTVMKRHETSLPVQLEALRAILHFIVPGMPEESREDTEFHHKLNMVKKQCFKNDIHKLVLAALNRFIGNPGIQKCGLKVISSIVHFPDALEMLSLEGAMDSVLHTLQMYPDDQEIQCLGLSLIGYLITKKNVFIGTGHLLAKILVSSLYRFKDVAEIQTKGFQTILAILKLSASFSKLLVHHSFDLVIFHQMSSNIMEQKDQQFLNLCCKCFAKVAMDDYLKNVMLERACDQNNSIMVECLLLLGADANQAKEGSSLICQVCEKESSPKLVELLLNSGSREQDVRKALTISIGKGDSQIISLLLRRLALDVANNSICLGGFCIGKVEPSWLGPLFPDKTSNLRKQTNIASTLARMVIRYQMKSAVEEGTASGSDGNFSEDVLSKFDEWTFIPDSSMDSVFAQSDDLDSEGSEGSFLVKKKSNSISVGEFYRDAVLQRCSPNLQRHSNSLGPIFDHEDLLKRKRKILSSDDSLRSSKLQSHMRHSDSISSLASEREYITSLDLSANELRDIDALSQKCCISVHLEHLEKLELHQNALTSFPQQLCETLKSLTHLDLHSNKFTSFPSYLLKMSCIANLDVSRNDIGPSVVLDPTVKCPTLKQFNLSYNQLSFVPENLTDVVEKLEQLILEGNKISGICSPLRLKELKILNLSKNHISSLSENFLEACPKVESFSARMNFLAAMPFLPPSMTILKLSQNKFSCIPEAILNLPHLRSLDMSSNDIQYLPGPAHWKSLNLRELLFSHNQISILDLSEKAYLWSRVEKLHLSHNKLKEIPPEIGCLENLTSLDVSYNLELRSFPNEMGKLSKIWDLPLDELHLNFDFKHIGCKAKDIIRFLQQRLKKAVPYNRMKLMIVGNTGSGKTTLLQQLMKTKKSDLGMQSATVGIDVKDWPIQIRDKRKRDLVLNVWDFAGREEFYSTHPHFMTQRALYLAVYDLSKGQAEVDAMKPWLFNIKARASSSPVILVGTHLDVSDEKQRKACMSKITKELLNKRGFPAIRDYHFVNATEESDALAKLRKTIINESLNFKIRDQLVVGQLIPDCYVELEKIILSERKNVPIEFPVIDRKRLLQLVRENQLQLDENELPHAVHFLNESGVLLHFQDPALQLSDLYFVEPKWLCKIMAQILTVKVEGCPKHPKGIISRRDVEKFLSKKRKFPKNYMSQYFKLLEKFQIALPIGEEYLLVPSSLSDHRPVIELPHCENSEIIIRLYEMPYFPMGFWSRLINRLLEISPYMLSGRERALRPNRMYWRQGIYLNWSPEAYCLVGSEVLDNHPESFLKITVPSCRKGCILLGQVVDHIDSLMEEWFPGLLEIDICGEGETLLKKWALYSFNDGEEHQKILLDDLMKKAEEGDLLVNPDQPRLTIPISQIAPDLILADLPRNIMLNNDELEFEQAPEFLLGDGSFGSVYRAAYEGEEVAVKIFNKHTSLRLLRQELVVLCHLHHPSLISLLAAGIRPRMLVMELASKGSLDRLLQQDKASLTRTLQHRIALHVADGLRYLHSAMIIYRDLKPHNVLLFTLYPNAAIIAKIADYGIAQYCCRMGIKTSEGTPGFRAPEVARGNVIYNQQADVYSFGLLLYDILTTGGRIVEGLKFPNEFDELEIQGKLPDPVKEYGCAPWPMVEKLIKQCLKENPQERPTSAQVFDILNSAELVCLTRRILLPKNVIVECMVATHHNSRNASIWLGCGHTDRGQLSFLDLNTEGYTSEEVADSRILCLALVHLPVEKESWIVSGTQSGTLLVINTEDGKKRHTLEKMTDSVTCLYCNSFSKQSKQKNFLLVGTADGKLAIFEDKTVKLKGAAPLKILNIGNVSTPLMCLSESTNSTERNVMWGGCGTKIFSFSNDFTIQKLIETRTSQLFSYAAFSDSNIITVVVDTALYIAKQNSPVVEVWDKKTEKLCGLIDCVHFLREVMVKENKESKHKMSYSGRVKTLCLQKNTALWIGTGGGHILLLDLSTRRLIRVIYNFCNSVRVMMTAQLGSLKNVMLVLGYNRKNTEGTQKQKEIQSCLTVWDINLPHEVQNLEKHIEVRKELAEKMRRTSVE

Q: `COc1nc(N2CCO[C@@H](CO)C2)cc(-n2ncc3cc(C)c(C4CCN(C5(C)COC5)CC4)cc32)n1` [Example A-4, (R)-(4-(2-Methoxy-6-(5-methyl-6-(l-(3-methyloxetan-3-yl)piperidin-4-yl)-1H-indazol-1-yl)pyrimidin-4-yl)morpholin-2-yl)methanol] was tested. Which IC50 did it give?
A: Its IC50 is at most 31.6 nM.

Q: `COc1nc(N2CCO[C@H](CO)C2)cc(-n2ncc3cc(C)c(C4CCN(C5(C)COC5)CC4)cc32)n1` [Example A-3, (S)-(4-(2-Methoxy-6-(5-methyl-6-(1-(3-methyloxetan-3-yl)piperidin-4-yl)-1H-indazol-1-yl)pyrimidin-4-yl)morpholin-2-yl)methanol] was tested. Which IC50 did it give?
A: The IC50 was ≤ 31.6 nM and 12.6 nM.

Q: For `Cc1nc(N2CCO[C@@H](CO)C2)cc(-n2ncc3cc(C)c(C4CCN(C5(C)COC5)CC4)cc32)n1` [Example A-1, (R)-(4-(2-Methyl-6-(5-methyl-6-(1-(3-methyloxetan-3-yl)piperidin-4-yl)-1H-indazol-1-yl)pyrimidin-4-yl)morpholin-2-yl)methanol], which IC50 is on record?
A: Its IC50 is 200 nM.

Q: For `Cc1nc(N2CCOC(CCO)C2)cc(-n2ncc3cc(C)c(C4CCN(C5COC5)CC4)cc32)n1` (single isomer, unassigned) [Example B-7, 2-(4-(2-methyl-6-(5-methyl-6-(1-(oxetan-3-yl)piperidin-4-yl)-1H-indazol-1-yl)pyrimidin-4-yl)morpholin-2-yl)ethanol], which IC50 is on record?
A: Its IC50 is 79.4 nM.

Q: For `Cc1nc(N2CC(C)OC(CO)C2)cc(-n2ncc3cc(C)c(C4CCN(C5COC5)CC4)cc32)n1` (single isomer, unassigned) [Example B-3, (6-Methyl-4-(2-methyl-6-(5-methyl-6-(1-(oxetan-3-yl)piperidin-4-yl)-1H-indazol-1-yl)pyrimidin-4-yl)morpholin-2-yl)methanol], which IC50 is on record?
A: Its IC50 is 50.1 nM.

Q: For `Cc1nc(N2CCOC(CCO)C2)cc(-n2ncc3cc(C)c(C4CCN(C5COC5)CC4)cc32)n1` (single isomer, unassigned) [Example B-8, 2-(4-(2-methyl-6-(5-methyl-6-(1-(oxetan-3-yl)piperidin-4-yl)-1H-indazol-1-yl)pyrimidin-4-yl)morpholin-2-yl)ethanol], which IC50 is on record?
A: The IC50 was 100 nM.

Q: For `Cc1nc(N2CC(C)OC(CO)C2)cc(-n2ncc3cc(C)c(C4CCN(C5COC5)CC4)cc32)n1` (single isomer, unassigned) [Example B-1, (6-Methyl-4-(2-methyl-6-(5-methyl-6-(1-(oxetan-3-yl)piperidin-4-yl)-1H-indazol-1-yl)pyrimidin-4-yl)morpholin-2-yl)methanol], which IC50 is on record?
A: The IC50 was 50.1 nM.

Q: With `Cc1nc(N2CC(C)OC(CO)C2)cc(-n2ncc3cc(C)c(C4CCN(C5COC5)CC4)cc32)n1` (single isomer, unassigned) [Example B-2, (6-Methyl-4-(2-methyl-6-(5-methyl-6-(1-(oxetan-3-yl)piperidin-4-yl)-1H-indazol-1-yl)pyrimidin-4-yl)morpholin-2-yl)methanol] as the molecule, how does the IC50 read?
A: Its IC50 is 79.4 nM.

Q: With `Cc1nc(N2CC(CO)OCC2C)cc(-n2ncc3cc(C)c(C4CCN(C5COC5)CC4)cc32)n1` (single isomer, unassigned) [Example B-6, (5-methyl-4-(2-methyl-6-(5-methyl-6-(1-(oxetan-3-yl)piperidin-4-yl)-1H-indazol-1-yl)pyrimidin-4-yl)morpholin-2-yl)methanol] as the molecule, how does the IC50 read?
A: Its IC50 is 63.1 nM.

Q: `Cc1nc(N2CC(C)OC(CO)C2)cc(-n2ncc3cc(C)c(C4CCN(C5COC5)CC4)cc32)n1` (single isomer, unassigned) [Example B-4, (6-Methyl-4-(2-methyl-6-(5-methyl-6-(1-(oxetan-3-yl)piperidin-4-yl)-1H-indazol-1-yl)pyrimidin-4-yl)morpholin-2-yl)methanol] was tested. Which IC50 did it give?
A: Its IC50 is 316 nM.
